Laboratory results taken from PubChem BioAssay AID588372 (Southern Research Specialized Biocontainment Screening …, 2011).
Where “and” joins values, the source holds several entries; their conditions need not be identical. Equal entries are not always repeated. Results filed as inconclusive are left out. Calls of active or inactive are those of the source. No rule for the calls is given here.

Legend:
[1] = antiviral activity against West Nile virus in cells, dose response, cell-based, EC_2 (AID 588372); details: West Nile virus infected cells, antiviral inhibition
[2] = system: West Nile virus infected cells, antiviral inhibition; assay: as above

Row | SMILES | inhibition ([1]; at 100 µM (top of the series)) | further results
1 | O=C(CSc1nc2ccccc2c(=O)n1-c1ccc(F)c(Cl)c1)Nc1nccs1 | 7.09% (inactive) | –
2 | O=C(CSc1nc2ccccc2c(=O)n1-c1ccc(F)c(F)c1)NC1CCCc2ccccc21 (configuration not stated) | -0.29% (inactive) | –
3 | O=C(CSc1nc2ccccc2c(=O)n1-c1ccccc1)Nc1ccc2c(c1)CCC2 | – | IC50 [2]: 6.51 µM and 33.3 µM
4 | O=C(CSc1nc2ccccc2c(=O)n1-c1ccc(Cl)c(Cl)c1)Nc1ccc2scnc2c1 | 0.04% (inactive) | –
5 | O=C(CCCCSc1nc2ccccc2c(=O)n1-c1ccc(F)c(Cl)c1)Nc1ccc2c(c1)CCC2 | 0.07% (inactive) | –
6 | O=C(CSc1nc2ccccc2c(=O)n1-c1cc(F)c(F)c(F)c1)Nc1cccc2ccccc12 | -1.52% (inactive) | –
7 | O=C(COc1nc2ccccc2c(=O)n1-c1ccccc1)Nc1ccc2c(c1)CCC2 | 5.92% (inactive) | –
8 | O=C(CSc1nc2ccccc2c(=O)n1-c1cc(Cl)cc(Cl)c1)NC1CCCc2ccccc21 (configuration not stated) | – | inhibition ([1]; at 50 µM (top of the series)): 1.62% (inactive)
9 | O=C(CCSc1nc2ccccc2c(=O)n1-c1ccc(F)c(F)c1)Nc1ccc2c(c1)CCC2 | -1.31% (inactive) | –
10 | O=C(CSc1nc2ccccc2c(=O)n1-c1ccc(Cl)c(Cl)c1)NC1Cc2ccccc2C1 | – | inhibition ([1]; at 50 µM (top of the series)): -0.66% (inactive)
11 | O=C(CCSc1nc2ccccc2c(=O)n1-c1ccc(F)c(Cl)c1)Nc1ccc2c(c1)CCC2 | -1.01% (inactive) | –
12 | O=C(CSc1nc2ccccc2c(=O)n1-c1ccc(F)c(F)c1)NC1Cc2ccccc2C1 | -0.73% (inactive) | –
13 | O=C(CSc1nc2ccccc2c(=O)n1-c1ccc(F)c(Cl)c1)NC1CCc2ccccc21 (configuration not stated) | 1.01% (inactive) | –
14 | O=C(CSc1nc2ccccc2c(=O)n1-c1cc(F)c(F)c(F)c1)Nc1cccc2c1CCC2 | – | inhibition ([1]; at 50 µM (top of the series)): 5.49% (inactive)
15 | O=C(CCCSc1nc2ccccc2c(=O)n1-c1ccc(Cl)c(Cl)c1)Nc1ccc2c(c1)CCC2 | -0.7% (inactive) | –
16 | O=C(CSc1nc2ccccc2c(=O)n1-c1ccc(Cl)c(Cl)c1)Nc1ncc([N+](=O)[O-])s1 | 0.32% (inactive) | –
17 | O=C(CSc1nc2ccccc2c(=O)n1-c1ccc(Cl)c(Cl)c1)N1CCCCCC1 | 1.13% (inactive) | –
18 | O=C(CSc1nc2ccccc2c(=O)n1-c1cc(F)c(F)c(F)c1)NC1Cc2ccccc2C1 | – | inhibition ([1]; at 50 µM (top of the series)): 0.07% (inactive)
19 | O=C(CSc1nc2ccccc2c(=O)n1-c1ccc(F)c(Cl)c1)NC1Cc2ccccc2C1 | -1.39% (inactive) | –
20 | O=C(CSc1nc2ccccc2c(=O)n1-c1cc(F)c(F)c(F)c1)Nc1nccs1 | 6.14% (inactive) | –
21 | O=C(CSc1nc2ccccc2c(=O)n1-c1ccc(Cl)c(Cl)c1)Nc1nc2cc(Cl)ccc2o1 | 6.36% (inactive) | –
22 | O=C(CSc1nc2ccccc2c(=O)n1-c1ccc(F)c(F)c1)Nc1ccc2c(c1)OCO2 | -1.66% (inactive) | –
23 | O=C(CCCCSc1nc2ccccc2c(=O)n1-c1ccc(Cl)c(Cl)c1)Nc1ccc2c(c1)CCC2 | 3.07% (inactive) | –
24 | O=C(CSc1nc2ccccc2c(=O)n1-c1cc(Cl)cc(Cl)c1)Nc1ccc2c(c1)CCC2 | – | IC50 [2]: 2.1 µM
25 | O=C(CSc1nc2ccccc2c(=O)n1-c1ccc(F)c(F)c1)Nc1cccc2c1CCC2 | 0% (inactive) | –
26 | O=C(CCCCSc1nc2ccccc2c(=O)n1-c1cc(F)c(F)c(F)c1)Nc1ccc2c(c1)CCC2 | 11.5% (inactive) | –

Row | SMILES | inhibition ([1]; at 100 µM (top of the series)) | further results
27 | O=C(CSc1nc2ccccc2c(=O)n1-c1ccc(F)c(Cl)c1)Nc1ccc2c(c1)OCO2 | -0.94% (inactive) | –
28 | O=C(CCSc1nc2ccccc2c(=O)n1-c1cc(Cl)cc(Cl)c1)Nc1ccc2c(c1)CCC2 | 1.02% (inactive) | –
29 | O=C(CSc1nc2ccccc2c(=O)n1-c1ccc(F)c(Cl)c1)Nc1cccc2ccccc12 | -0.86% (inactive) | –
30 | Cc1nc2cc(NC(=O)CSc3nc4ccccc4c(=O)n3-c3ccc(Cl)c(Cl)c3)ccc2s1 | – | inhibition ([1]; at 50 µM (top of the series)): 0.29% (inactive)
31 | Cn1c(NC(=O)CSc2nc3ccccc3c(=O)n2-c2ccccc2)nc2ccccc21 | – | inhibition ([1]; at 25 µM (top of the series)): -2.29% (inactive)
32 | O=C(CSc1nc2ccccc2c(=O)n1-c1ccc(F)c(F)c1)Nc1ccc2c(c1)CCC2 | – | IC50 [2]: 5.72 µM
33 | O=C(CSc1nc2ccccc2c(=O)n1-c1cc(F)c(F)c(F)c1)Nc1ccc2c(c1)OCO2 | 3.29% (inactive) | –
34 | O=C(CCCCSc1nc2ccccc2c(=O)n1-c1cc(Cl)cc(Cl)c1)Nc1ccc2c(c1)CCC2 | 0.66% (inactive) | –
35 | O=C(CSc1nc2ccccc2c(=O)n1-c1ccc(Cl)c(Cl)c1)NC1CCc2ccccc21 (configuration not stated) | – | inhibition ([1]; at 50 µM (top of the series)): 5.24% (inactive)
36 | Cn1c(NC(=O)CSc2nc3ccccc3c(=O)n2-c2ccc(Cl)c(Cl)c2)nc2ccccc21 | – | inhibition ([1]; at 50 µM (top of the series)): -1.28% (inactive)
37 | O=C(CSc1nc2ccccc2c(=O)n1-c1ccc(Cl)c(Cl)c1)Nc1nc(-c2ccccc2)cs1 | 0.46% (inactive) | –
38 | Cc1cnc(NC(=O)CSc2nc3ccccc3c(=O)n2-c2ccc(Cl)c(Cl)c2)s1 | -0.85% (inactive) | –
39 | O=C(CSc1nc2ccccc2c(=O)n1-c1ccc(F)c(Cl)c1)Nc1cccc2c1CCC2 | -0.11% (inactive) | –
40 | O=C(CSc1nc2ccccc2c(=O)n1-c1ccc(F)c(F)c1)Nc1nccs1 | – | inhibition ([1]; at 50 µM (top of the series)): 0% (inactive)
41 | O=C(CSc1nc2ccccc2c(=O)n1-c1cc(F)c(F)c(F)c1)NC1CCCc2ccccc21 (configuration not stated) | – | inhibition ([1]; at 50 µM (top of the series)): -0.6% (inactive)
42 | O=C(CSc1nc2ccccc2c(=O)n1-c1ccc(Cl)c(Cl)c1)Nc1cccc(-c2ccccc2)c1 | -1.24% (inactive) | –
43 | Cc1csc(NC(=O)CSc2nc3ccccc3c(=O)n2-c2ccc(Cl)c(Cl)c2)n1 | -0.04% (inactive) | –
44 | O=C(CSc1nc2ccccc2c(=O)n1-c1ccc(Cl)c(Cl)c1)Nc1nc2ccc([N+](=O)[O-])cc2s1 | – | inhibition ([1]; at 50 µM (top of the series)): -1.43% (inactive)
45 | O=C(CSc1nc2ccccc2c(=O)n1-c1ccc(Cl)c(Cl)c1)NC1CCCc2ccccc21 (configuration not stated) | – | inhibition ([1]; at 50 µM (top of the series)): 1.77% (inactive)
46 | O=C(CSc1nc2ccccc2c(=O)n1-c1cc(F)c(F)c(F)c1)Nc1ccc2c(c1)CCC2 | – | IC50 [2]: 5.27 µM
47 | O=C(CSc1nc2ccccc2c(=O)n1-c1ccc(F)c(Cl)c1)NC1CCCc2ccccc21 (configuration not stated) | -0.04% (inactive) | –
48 | O=C(CSc1nc2ccccc2c(=O)n1-c1ccc(F)c(F)c1)Nc1cccc2ccccc12 | -1.02% (inactive) | –
49 | O=C(CSc1nc2ccccc2c(=O)n1-c1ccc(F)c(Cl)c1)Nc1ccc2c(c1)CCC2 | – | IC50 [2]: 9.05 µM
50 | O=C(CSc1nc2ccccc2c(=O)n1-c1cc(Cl)cc(Cl)c1)Nc1cccc2c1CCC2 | – | inhibition ([1]; at 50 µM (top of the series)): 1.26% (inactive)
51 | O=C(CCCCSc1nc2ccccc2c(=O)n1-c1ccc(F)c(F)c1)Nc1ccc2c(c1)CCC2 | 0.53% (inactive) | –
52 | O=C(CSc1nc2ccccc2c(=O)n1-c1cc(Cl)cc(Cl)c1)Nc1ccc2c(c1)OCO2 | – | inhibition ([1]; at 50 µM (top of the series)): -2.43% (inactive)
